Data on 16 compounds can be found in patent publication US8183238B2, “Bicyclic and tricyclic compounds as KAT II inhibitors” (priority 2009, dated 2012).

The test has as its target human KAT II (hKAT II) enzyme (Homo sapiens, UniProt Q8N5Z0). The experiment in a line: KAT II Inhibition Spectra Assay. Particulars: hKAT II, decrease in OD370, 37° C., 15-20 h, read-out: KATII IC50. In kind it is biochemical. As for the experimental part: Formation of kynurenic acid (KYNA) is indirectly assessed by a decrease in light absorbance at 370 nm (OD370) as the L-kynurenine (KYN) substrate is converted by the human KAT II (hKAT II) enzyme into KYNA. An inhibitor would therefore inhibit the decrease in OD370.
The protocol was performed by placing the following reagents into a Costar 384 well black plate (30 μL total assay volume/well): • 10 μL of 3× concentrated compound; • 10 μL of 3× concentrated substrate mix (BGG (Sigma G-5009); 3 mM L-Kynurenine in 150 mM Tris Acetate (Sigma K3750); 3 mM α-ketoglutaric acid in 150 mM Tris Acetate (Sigma K2010); and 210 μM pyridoxal 5-phosphate (PLP) in 150 mM Tris Acetate (Sigma 9255)); and • 10 μL of 3× concentrated enzyme (15 nM enzyme in 150 mM Tris Acetate with 0.3% bovine serum).
Plates were sealed and incubated at 37° C. for 15-20 h before reading OD370 on a SpectraMax Plus plate reader. IC50s were generated by comparing the efficacy of compounds across a concentration range to inhibit a reduction in the OD370 value relative to assay wells with DMSO added in place of concentrated compound.

Structures are written as SMILES. Structures can show the parent of a compound that is named as a salt. Where two headings read alike, the source gives them in different places.

Chain of human KAT II (hKAT II) enzyme (Q8N5Z0 30-425): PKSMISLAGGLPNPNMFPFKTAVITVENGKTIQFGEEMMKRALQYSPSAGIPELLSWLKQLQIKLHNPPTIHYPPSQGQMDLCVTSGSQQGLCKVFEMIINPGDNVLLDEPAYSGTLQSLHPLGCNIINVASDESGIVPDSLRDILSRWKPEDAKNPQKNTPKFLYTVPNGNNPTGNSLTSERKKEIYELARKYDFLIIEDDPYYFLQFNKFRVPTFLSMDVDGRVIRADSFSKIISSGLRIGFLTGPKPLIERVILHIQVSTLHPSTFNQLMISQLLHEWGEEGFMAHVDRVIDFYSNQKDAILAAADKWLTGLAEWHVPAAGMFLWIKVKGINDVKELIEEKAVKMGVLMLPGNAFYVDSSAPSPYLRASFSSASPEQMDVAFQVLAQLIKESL

The IC50 is the midpoint of a concentration-inhibition curve. `NC1Cc2ccc(-c3cc(Cl)ccc3F)cc2N(O)C1=O` (stereo not shown) [Example 54, 3-amino-7-(5-chloro-2-fluorophenyl)-1-hydroxy-3,4-dihydroquinolin-2(1H)-one, trifluoroacetate salt]: the IC50 (Table 5) turned out to be 0.137 µM. Same read-out and setting: to `CC(C)c1ccc(-c2ccc3c(c2)N(O)C(=O)C(N)C3)cc1` (stereo not shown) [Example 55, 3-amino-1-hydroxy-7-(4-isopropylphenyl)-3,4-dihydroquinolin-2(1H)-one, trifluoroacetate salt] belongs 0.141 µM; to `COc1ccc(-c2ccc3c(c2)N(O)C(=O)C(N)C3)cc1` (stereo not shown) [Example 56, 3-amino-1-hydroxy-7-(4-methoxyphenyl)-3,4-dihydroquinolin-2(1H)-one, trifluoroacetate salt], 0.0911 µM; to `CCOc1ccccc1-c1ccc2c(c1)N(O)C(=O)C(N)C2` (stereo not shown) [Example 57, 3-amino-7-(2-ethoxyphenyl)-1-hydroxy-3,4-dihydroquinolin-2(1H)-one, trifluoroacetate salt], 0.102 µM. The same measure, in the same setting: to `NC1Cc2ccc(-c3cc(Cl)cc(Cl)c3)cc2N(O)C1=O` (stereo not shown) [Example 58, 3-amino-7-(3,5-dichlorophenyl)-1-hydroxy-3,4-dihydroquinolin-2(1H)-one, trifluoroacetate salt] belongs 0.174 µM; to `COc1ccc(F)cc1-c1ccc2c(c1)N(O)C(=O)C(N)C2` (stereo not shown) [Example 59, 3-amino-7-(5-fluoro-2-methoxyphenyl)-1-hydroxy-3,4-dihydroquinolin-2(1H)-one, trifluoroacetate salt], 0.156 µM. Regarding `CC(C)Oc1ccc(-c2ccc3c(c2)N(O)C(=O)C(N)C3)cc1` (stereo not shown) [Example 60, 3-amino-1-hydroxy-7-(4-isopropoxyphenyl)-3,4-dihydroquinolin-2(1H)-one, trifluoroacetate salt], the IC50 (Table 5) was 0.161 µM. Still for that read-out and setting: the same measure for `NC1Cc2ccc(-c3ccc(OC(F)(F)F)cc3)cc2N(O)C1=O` (stereo not shown) [Example 61, 3-amino-1-hydroxy-7-[4-(trifluoromethoxy)phenyl]-3,4-dihydroquinolin-2(1H)-one, trifluoroacetate salt]: 0.162 µM. Same read-out and setting: to `N#Cc1ccccc1-c1ccc2c(c1)N(O)C(=O)C(N)C2` (stereo not shown) [Example 62, 2-(3-amino-1-hydroxy-2-oxo-1,2,3,4-tetrahydroquinolin-7-yl)benzonitrile, trifluoroacetate salt] belongs 0.135 µM; to `Cc1cccc(-c2ccc3c(c2)N(O)C(=O)C(N)C3)c1` (stereo not shown) [Example 63, 3-amino-1-hydroxy-7-(3-methylphenyl)-3,4-dihydroquinolin-2(1H)-one, trifluoroacetate salt], 0.113 µM; to `COc1ccc(-c2ccc3c(c2)N(O)C(=O)C(N)C3)cc1C` (stereo not shown) [Example 64, 3-amino-1-hydroxy-7-(4-methoxy-3-methylphenyl)-3,4-dihydroquinolin-2(1H)-one, trifluoroacetate salt], 0.141 µM.

`NC1Cc2ccc(-c3ccc4c(c3)CCO4)cc2N(O)C1=O` (stereo not shown) [Example 65, 3-amino-7-(2,3-dihydro-1-benzofuran-5-yl)-1-hydroxy-3,4-dihydroquinolin-2(1H)-one, trifluoroacetate salt]: the IC50 (Table 5) came to 0.155 µM. For `N[C@H]1Cc2cc(Oc3ccccc3)cnc2N(O)C1=O` [Example 66, (3S)-3-amino-1-hydroxy-6-phenoxy-3,4-dihydro-1,8-naphthyridin-2(1H)-one], where the note is “Table 6”, the IC50 was found to be 0.0231 µM. Same read-out and setting: to `N[C@H]1Cc2cc(S(=O)(=O)c3ccccc3)ccc2N(O)C1=O` [Example 67, (3S)-3-amino-1-hydroxy-6-(phenylsulfonyl)-3,4-dihydroquinolin-2(1H)-one, hydrochloride salt] belongs 0.0421 µM; to `N[C@H]1Cc2cc(Cc3ccccc3)ccc2N(O)C1=O` [Example 68, (3S)-3-amino-6-benzyl-1-hydroxy-3,4-dihydroquinolin-2(1H)-one, trifluoroacetic acid salt], 0.0427 µM; to `NC1Cc2cc(Oc3ccccc3Cl)ccc2N(O)C1=O` (stereo not shown) [Example 69, 3-amino-6-(2-chlorophenoxy)-1-hydroxy-3,4-dihydroquinolin-2(1H)-one, hydrochloride salt], 0.0433 µM.
